From patent US11897918B2, “Compositions and methods to increase production” (priority 2014, dated 2024)

Assays:
[1] = system: influenza H3N2 strain IVR-165 (A/Victoria/361/2011); format: cell-based
[2] = system: B/Massachusetts/2/2012 (low-expressing); assay: ambr15 mini-bioreactor and shake flask comparison, B strain; format: cell-based, influenza B; conditions: CDM and DM134 media, shake flasks and 15 ml bioreactors
Protocol: The two lead compounds were further tested in the commercially available small-scale bioreactor system, ambr15™ (TAP Biosystems). The ambr15 system mimics the characteristics of classical bioreactors at microscale (10-15 ml), controlled by an automated workstation, which enables the rapid evaluation of multiple bioreactor cultures at microscale.
To test both lead compounds were tested side-by-side under controlled conditions, with two infection media formulations (DM134 and CDM) and two flu strains, A/Victoria/361/2011 (IVR-165) (high-expressing) and B/Massachusetts/2/2012 (low-expressing). The infection parameters used in the experiment were as follows: seeding density was 1.0×10^6 cells/ml or 2.5×10^6 cells/mL; pH was 7.1+/−0.02 (pH control by dual control with 0.05N NaOH and CO2 gas); DO was 50% (range 50-80%), controlled by O2 gas; agitation was 1000 rpm (local control); temperature was 34.0° C., locally monitored with bioreactor controller probe; vessel type was Spargeless, extended temperature vessels; and, aeration rate during run was 1 mL/min.
The quantification of HA was carried out by ELISA then was subsequently confirmed by HPLC. It was also shown that AFZ077 was able to boost HA yield in the DM134 medium with both low (1×10^6 per mL) and high (2.5×10^6 per mL) infection cell densities in this system. […] Overall, greater enhancement effect seen for low-expressing strains. […]

B/Massachusetts/02/2012 = assay: Ambr 250 mL bioreactor, B strain; format: cell-based, influenza B
Protocol: FIG. 13 provides a graph showing HA yields in the B strain tested with BYF589 at concentrations as indicated.
FIG. 14 provides a graph showing HA yields in the B strain tested with AFZ077 at concentrations as indicated.
The results were confirmed using 3 different viruses (a high-, medium-, and poor-expressing strains). […] To confirm these findings in a larger-scale system, TD Ambr™ 250 mL bioreactors were employed. Both of the lead compounds (as well as DMSO alone as negative control, and, no compound/no DMSO as double-negative control) were tested with a high- and low-expressing strains to determine if the observed enhancement in the small-scale cultures can be reproduced in a larger-scale system. The following parameters were used: Spent DM134:Fresh PFM (1:3); Virus Strains were A/Victoria/361/2011 (IVR-165) and B/Massachusetts/02/2012; MOI was 10^−5 for A/Victoria IVR-165 and 10^−4 for B/Massachusetts; ICD: 2.0e6-3.0e6 cells/mL; N-1 Process: 1B (no Medium Exchange); and, Harvest Time was 65-72 hours post-infection. HA yields were measured by two methods: RP-HPLC and HA-ELISA. […] Note that the error bars represent one standard deviation from the mean, to illustrate variability of the HA-ELISA assay between assay repeats.

cellular cholesterol = assay: Total cellular cholesterol (Amplex Red); format: cell-based; conditions: normalized to DMSO
Protocol: Possible effects of BYF589 as well as various enzyme inhibitors of the pathway on the cell viability and total cellular cholesterol levels were examined. Tested samples included DMSO, BYF589 (1 μM), MEV (100 μM), FTI (0.5 μM), ZA (1 μM) and GTI (0.5 μM).
Free cholesterol is oxidized by cholesterol oxidase to form a cholesterol ketone and H2O2, which then reacts with Amplex Red+HRP to produce the fluorescent product resorufin.

## O=C(O)C[C@H](O)C[C@H](O)/C=C/c1c(C2CC2)nc2ccccc2c1-c1ccc(F)cc1 [Compound G, (3R, 5S, 6E)-7-[2-cyclopropyl-4-(4-fluorophenyl)-quinolin-3-yl)-3,5-dihydroxyhept-6-enoic acid]
[1]
  HA yield before the decrease (earlier addition): about 20 μg/ml
  HA yield, compound added 2 hours post infection: about 5 μg/ml
[2]
  HA yield enhancement, low-expressing B strain: boosts HA yield
B/Massachusetts/02/2012; 5 nM vs 50 nM vs 500 nM
  effectiveness in increasing protein production yield by concentration: more effective in increasing protein production yield at 5 nM than at 50 nM, which in turn was more effective than at 500 nM
B/Massachusetts/02/2012; 0.005 μM, HA-HPLC
  increase in yield over no DMSO control: about 37%
Cellular cholesterol
  cellular cholesterol levels, compound alone: lower cholesterol
